The NIST ThermoML archive (doi:10.1016/j.jct.2015.11.023)
± gives the expanded uncertainty stated by the source.

What was measured:
[1] = for surface tension liquid-gas: Maximal bubble pressure; for mass density: 101.33 kPa, Liquid, Vibrating tube method
[2] = refractive index (Na D-line) (dimensionless); conditions: 101.33 kPa, Liquid, Standard Abbe refractometry

Compound CCCC[n+]1ccccc1.N#C[N-]C#N [1-butylpyridinium dicyanamide] has a surface tension liquid-gas ([1]; 303.15 K) of 55.5 ± 0.5 mN/m, a mass density ([1]; 303.15 K) of 1065.76 ± 2 kg/m3 and a surface tension liquid-gas ([1]; 308.15 K) of 55.2 ± 0.5 mN/m. It also gave a mass density ([1]; 308.15 K) of 1062.7 ± 2 kg/m3, a surface tension liquid-gas ([1]; 313.15 K) of 54.9 ± 0.5 mN/m and a mass density ([1]; 313.15 K) of 1059.66 ± 2 kg/m3. It also gave a surface tension liquid-gas ([1]; 318.15 K) of 54.5 ± 0.5 mN/m, a mass density ([1]; 318.15 K) of 1056.64 ± 2 kg/m3 and a surface tension liquid-gas ([1]; 323.15 K) of 54.2 ± 0.5 mN/m. For the same compound, the mass density ([1]; 323.15 K) was 1053.63 ± 2 kg/m3, the surface tension liquid-gas ([1]; 328.15 K) was 53.9 ± 0.5 mN/m and the mass density ([1]; 328.15 K) was 1050.63 ± 2 kg/m3. It also gave a surface tension liquid-gas ([1]; 333.15 K) of 53.6 ± 0.5 mN/m, a mass density ([1]; 333.15 K) of 1047.66 ± 2 kg/m3 and a surface tension liquid-gas ([1]; 338.15 K) of 53.4 ± 0.5 mN/m. It also gave a mass density ([1]; 338.15 K) of 1044.69 ± 2 kg/m3, a refractive index ([2]; 303.15 K) of 1.5325 ± 0.003 and a refractive index ([2]; 308.15 K) of 1.5309 ± 0.003. It also gave a refractive index ([2]; 313.15 K) of 1.5285 ± 0.003, a refractive index ([2]; 318.15 K) of 1.527 ± 0.003 and a refractive index ([2]; 323.15 K) of 1.5253 ± 0.003. The refractive index ([2]; 328.15 K) was 1.5237 ± 0.003, the refractive index ([2]; 333.15 K) was 1.5217 ± 0.003 and the refractive index ([2]; 338.15 K) was 1.5202 ± 0.003.
For CCCCC[n+]1ccccc1.N#C[N-]C#N [1-pentylpyridinium dicyanamide], the surface tension liquid-gas ([1]; 303.15 K) was 53 ± 0.5 mN/m, the mass density ([1]; 303.15 K) was 1050.05 ± 2 kg/m3 and the surface tension liquid-gas ([1]; 308.15 K) was 52.7 ± 0.5 mN/m. For the same compound, the mass density ([1]; 308.15 K) was 1047.03 ± 2 kg/m3, the surface tension liquid-gas ([1]; 313.15 K) was 52.4 ± 0.5 mN/m and the mass density ([1]; 313.15 K) was 1044.03 ± 2 kg/m3. It also gave a surface tension liquid-gas ([1]; 318.15 K) of 52.1 ± 0.5 mN/m, a mass density ([1]; 318.15 K) of 1041.04 ± 2 kg/m3 and a surface tension liquid-gas ([1]; 323.15 K) of 51.7 ± 0.5 mN/m. It also gave a mass density ([1]; 323.15 K) of 1038.07 ± 2 kg/m3, a surface tension liquid-gas ([1]; 328.15 K) of 51.4 ± 0.5 mN/m and a mass density ([1]; 328.15 K) of 1035.11 ± 2 kg/m3. The surface tension liquid-gas ([1]; 333.15 K) was 51.2 ± 0.5 mN/m, the mass density ([1]; 333.15 K) was 1032.17 ± 2 kg/m3 and the surface tension liquid-gas ([1]; 338.15 K) was 51 ± 0.5 mN/m. For the same compound, the mass density ([1]; 338.15 K) was 1029.24 ± 2 kg/m3, the refractive index ([2]; 303.15 K) was 1.5287 ± 0.003 and the refractive index ([2]; 308.15 K) was 1.5272 ± 0.003. The refractive index ([2]; 313.15 K) was 1.5258 ± 0.003, the refractive index ([2]; 318.15 K) was 1.5243 ± 0.003 and the refractive index ([2]; 323.15 K) was 1.523 ± 0.003. It also gave a refractive index ([2]; 328.15 K) of 1.5212 ± 0.003, a refractive index ([2]; 333.15 K) of 1.5194 ± 0.003 and a refractive index ([2]; 338.15 K) of 1.5179 ± 0.003.
Compound CCC[n+]1ccccc1.N#C[N-]C#N [1-propylpyridinium dicyanamide] has a surface tension liquid-gas ([1]; 303.15 K) of 57.7 ± 0.8 mN/m, a mass density ([1]; 303.15 K) of 1086.92 ± 4.1 kg/m3 and a surface tension liquid-gas ([1]; 308.15 K) of 57.4 ± 0.8 mN/m. The mass density ([1]; 308.15 K) was 1083.79 ± 4.1 kg/m3, the surface tension liquid-gas ([1]; 313.15 K) was 57 ± 0.8 mN/m and the mass density ([1]; 313.15 K) was 1080.69 ± 4.1 kg/m3. For the same compound, the surface tension liquid-gas ([1]; 318.15 K) was 56.7 ± 0.8 mN/m, the mass density ([1]; 318.15 K) was 1077.6 ± 4.1 kg/m3 and the surface tension liquid-gas ([1]; 323.15 K) was 56.4 ± 0.8 mN/m. It also gave a mass density ([1]; 323.15 K) of 1074.52 ± 4.1 kg/m3, a surface tension liquid-gas ([1]; 328.15 K) of 56.1 ± 0.8 mN/m and a mass density ([1]; 328.15 K) of 1071.46 ± 4.1 kg/m3. It also gave a surface tension liquid-gas ([1]; 333.15 K) of 55.7 ± 0.8 mN/m, a mass density ([1]; 333.15 K) of 1068.42 ± 4.1 kg/m3 and a surface tension liquid-gas ([1]; 338.15 K) of 55.4 ± 0.8 mN/m. The mass density ([1]; 338.15 K) was 1065.4 ± 4.1 kg/m3, the refractive index ([2]; 303.15 K) was 1.539 ± 0.006 and the refractive index ([2]; 308.15 K) was 1.5374 ± 0.006. For the same compound, the refractive index ([2]; 313.15 K) was 1.5356 ± 0.006, the refractive index ([2]; 318.15 K) was 1.5342 ± 0.006 and the refractive index ([2]; 323.15 K) was 1.5329 ± 0.006. It also gave a refractive index ([2]; 328.15 K) of 1.5312 ± 0.006, a refractive index ([2]; 333.15 K) of 1.5293 ± 0.006 and a refractive index ([2]; 338.15 K) of 1.5276 ± 0.006.
